Experimental data taken from ChEMBL document CHEMBL5260831, “Recent advance in oxazole-based medicinal chemistry” (Eur J Med Chem, 2018).
≈ marks a conversion by molar mass, not a printed value.

What was measured:
Rattus norvegicus [1] = test: Anti-inflammatory activity against Carrageenan-induced paw edema in Wistar albino rat ulcerogenic activity relative to control; type: functional
MCF7 [2] = test: Antiproliferative activity in human MCF7 cells assessed as cell growth inhibition measured after 48 hrs by MTT assay; type: functional, cell-based; conditions: MCF7, 48 h
A549 [3] = test: Antiproliferative activity in human A549 cells assessed as cell growth inhibition measured after 48 hrs by MTT assay; type: functional, cell-based; conditions: A549, 48 h
Staphylococcus aureus [4] = test: Antibiofilm activity against methicillin-sensitive Staphylococcus aureus ATCC 35556 assessed as inhibition of biofilm formation; type: functional
HepG2 [5] = test: Antiproliferative activity in human HepG2 cells assessed as cell growth inhibition measured after 72 hrs by MTT assay; type: functional, cell-based; conditions: HepG2, 72 h
Alpha-glucosidase [6] = biological target: T1, Alpha-glucosidase (Saccharomyces cerevisiae S288c, UniProt P53341+P38158+P07265); test: Inhibition of yeast alpha-glucosidase using p-nitrophenyl-alpha-D-glucopyranoside as substrate by absorbance based analysis; type: protein assay
Alpha-glucosidase [7] = biological target: T1, Alpha-glucosidase; test: Inhibition of yeast alpha-glucosidase using p-nitrophenyl-alpha-D-glucopyranoside as substrate; type: protein assay
MCF7 [8] = test: Antiproliferative activity in human MCF7 cells assessed as cell growth inhibition; type: functional, cell-based
HepG2 [9] = test: Antiproliferative activity in human HepG2 cells assessed as cell growth inhibition; type: functional, cell-based
Rattus norvegicus [10] = test: Anti-inflammatory activity against Carrageenan-induced paw edema in albino rat ulcerogenic activity at 20 mg/kg, po relative to control; type: functional
A549 [11] = test: Antiproliferative activity in human A549 cells assessed as cell growth inhibition; type: functional, cell-based
HeLa = test: Antiproliferative activity in human HeLa cells assessed as cell growth inhibition; type: functional, cell-based
A549 [12] = test: Antiproliferative activity in paclitaxel-resistant human A549 cells assessed as cell growth inhibition measured after 72 hrs by SRB assay; type: functional, cell-based; conditions: A549, 72 h
MDA-MB-231 = test: Antiproliferative activity in human MDA-MB-231 cells assessed as cell growth inhibition measured after 72 hrs by SRB assay; type: functional, cell-based; conditions: MDA-MB-231, 72 h
A549 [13] = test: Antiproliferative activity in human A549 cells assessed as cell growth inhibition measured after 72 hrs by SRB assay; type: functional, cell-based; conditions: A549, 72 h
SK-HEP1 = test: Antiproliferative activity in human SK-HEP1 cells assessed as cell growth inhibition measured after 72 hrs by SRB assay; type: functional, cell-based; conditions: SK-HEP1, 72 h
[14] = Antiproliferative activity in human SNU-601 cells assessed as cell growth inhibition measured after 72 hrs by SRB assay; type: functional, cell-based; conditions: SNU-601, 72 h
HCT-116 = test: Antiproliferative activity in human HCT-116 cells assessed as cell growth inhibition measured after 72 hrs by SRB assay; type: functional, cell-based; conditions: HCT-116, 72 h
[15] = test system: Mycobacterium tuberculosis; test: Antimycobacterial activity against Mycobacterium tuberculosis H37Rv ATCC27294 assessed as inhibition of bacterial growth by agar dilution assay; type: functional
[16] = biological target: Protein kinase C beta type (Homo sapiens, UniProt P05771); test: Inhibition of PKCB (unknown origin)
Chain of Protein kinase C beta type (P05771 whole entry): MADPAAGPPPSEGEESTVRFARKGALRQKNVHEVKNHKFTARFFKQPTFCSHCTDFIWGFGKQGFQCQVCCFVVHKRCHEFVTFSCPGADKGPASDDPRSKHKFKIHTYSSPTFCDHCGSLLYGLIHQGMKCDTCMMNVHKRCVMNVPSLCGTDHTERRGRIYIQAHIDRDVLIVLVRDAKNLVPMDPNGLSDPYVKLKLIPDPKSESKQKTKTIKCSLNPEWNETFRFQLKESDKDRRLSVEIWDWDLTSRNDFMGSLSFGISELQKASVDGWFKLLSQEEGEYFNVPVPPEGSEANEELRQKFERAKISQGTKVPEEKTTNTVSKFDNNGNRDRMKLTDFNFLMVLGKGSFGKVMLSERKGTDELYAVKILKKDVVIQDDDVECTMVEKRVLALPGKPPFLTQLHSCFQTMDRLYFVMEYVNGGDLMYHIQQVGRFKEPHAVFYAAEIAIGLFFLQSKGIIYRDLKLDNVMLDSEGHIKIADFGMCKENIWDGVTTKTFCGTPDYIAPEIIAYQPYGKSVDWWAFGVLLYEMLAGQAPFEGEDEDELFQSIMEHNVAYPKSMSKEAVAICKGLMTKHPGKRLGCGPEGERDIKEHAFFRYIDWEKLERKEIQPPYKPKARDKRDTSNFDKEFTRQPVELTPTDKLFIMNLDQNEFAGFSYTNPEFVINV

A549 [17] = test: Antiproliferative activity in human A549 cells assessed as cell growth inhibition measured after 72 hrs by MTT assay; type: functional, cell-based; conditions: A549, 72 h
Staphylococcus aureus [18] = test: Antibacterial activity against Staphylococcus aureus assessed as bacterial growth inhibition by disc diffusion assay; type: functional
Escherichia coli = test: Antibacterial activity against Escherichia coli assessed as bacterial growth inhibition by microdilution assay; type: functional
Rattus norvegicus [19] = test: Anti-inflammatory activity against Carrageenan-induced paw edema in rat ulcerogenic activity relative to control; type: functional
[20] = test system: Mycolicibacterium smegmatis; test: Antibacterial activity against Mycobacterium smegmatis mc2155ATCC-700084 assessed as bacterial growth inhibition measured after 18 hrs by microplate reader based analysis; type: functional
P388 = test: Antiproliferative activity gainst mouse P388 cells assessed as cell growth inhibition; type: functional, cell-based
[21] = biological target: Cannabinoid receptor 1 (Homo sapiens) (UniProt P21554); test: Binding affinity to CB1 receptor (unknown origin); conditions: filed as agonist
Chain of Cannabinoid receptor 1 (Homo sapiens) (P21554 whole entry, the tested form may be a part): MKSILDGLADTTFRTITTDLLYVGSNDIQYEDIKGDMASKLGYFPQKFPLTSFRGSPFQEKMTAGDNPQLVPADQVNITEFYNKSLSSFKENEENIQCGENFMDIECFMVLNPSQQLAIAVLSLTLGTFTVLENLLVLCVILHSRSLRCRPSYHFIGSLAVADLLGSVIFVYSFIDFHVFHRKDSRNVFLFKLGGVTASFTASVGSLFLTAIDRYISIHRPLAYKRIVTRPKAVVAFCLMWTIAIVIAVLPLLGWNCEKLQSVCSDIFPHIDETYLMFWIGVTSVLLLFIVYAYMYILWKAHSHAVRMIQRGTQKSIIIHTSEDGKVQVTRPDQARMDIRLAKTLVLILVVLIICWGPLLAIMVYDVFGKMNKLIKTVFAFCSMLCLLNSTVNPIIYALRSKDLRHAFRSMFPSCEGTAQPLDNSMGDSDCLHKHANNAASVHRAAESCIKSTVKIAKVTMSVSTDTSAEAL

Pseudomonas aeruginosa = test: Antibacterial activity against Pseudomonas aeruginosa MTCC 741 assessed as microbial growth inhibition measured after 24 hrs by paper disc diffusion technique; type: functional
Bacillus cereus = test: Antibacterial activity against Bacillus cereus MTCC 430 assessed as microbial growth inhibition measured after 24 hrs by paper disc diffusion technique; type: functional
Leishmania major = test: Leishmanicidal activity against Leishmania major JISH118 promastigote infected in human THP-1 macrophage cells assessed as reduction in […]; type: functional, organism-based; conditions: JISH118, THP-1

## Clc1ccccc1-c1nnc(Cn2c(CN3CCOCC3)nc3ccccc32)o1
Rattus norvegicus [1]
  inhibition (INH): 74.17%

## CC1=NN(c2ccccc2)C(=O)/C1=N/Nc1cccc(-c2nc3ccccc3o2)c1
MCF7 [2]
  IC50: 17 µM
A549 [3]
  IC50: 15.5 µM

## Cn1c(-c2nnc(-c3cc(Br)c(Br)[nH]3)o2)cc(Br)c1Br
Staphylococcus aureus [4]
  MBIC: 0.78 µg/mL

## CC(=O)Oc1ccc(-c2nc(-c3ccccc3)co2)cc1
HepG2 [5]
  IC50: 16.6 µM

## O=[N+]([O-])c1ccc2cc(-c3nnc(-c4ccc(O)cc4O)o3)oc2c1
Alpha-glucosidase [6]
  IC50: 12.75 µM
Alpha-glucosidase [7]
  IC50: 2 µM

## COc1ccc(-c2nnc(-c3cc(Br)c(Br)n3C)o2)cc1
Staphylococcus aureus [4]
  MBIC: 0.78 µg/mL

## Cn1c(-c2nnc(-c3ccc(Cl)cc3Cl)o2)cc(Br)c1Br
Staphylococcus aureus [4]
  MBIC: 0.39 µg/mL

## CC(=O)Oc1ccccc1C1OC(c2ccncc2)=NN1C(C)=O (stereo unspecified)
MCF7 [8]
  IC50: 50 µM
HepG2 [9]
  IC50: 50 µM

## O=[N+]([O-])c1ccc2cc(-c3nnc(-c4ccccc4F)o3)oc2c1
Alpha-glucosidase [6]
  IC50: 12.75 µM
Alpha-glucosidase [7]
  IC50: 2 µM

## O=C(CCN1CCN(c2ccc([N+](=O)[O-])cc2)CC1)Nc1ccc2oc(Cc3ccc(Cl)cc3)nc2c1
Rattus norvegicus [10]
  inhibition in vivo at 20 mg/kg: 81.7%

## Cc1ncc(-c2cccnc2)o1
MCF7 [8]
  IC50: 4.6 µM
A549 [11]
  IC50: 4.6 µM
HeLa
  IC50: 4.6 µM

## O=[N+]([O-])c1ccc2cc(-c3nnc(-c4cccc(O)c4O)o3)oc2c1
Alpha-glucosidase [6]
  IC50: 12.75 µM
Alpha-glucosidase [7]
  IC50: 2 µM

## CN[C@H](CC(C)C)C(=O)N[C@H]1C(=O)N[C@@H](CC(N)=O)C(=O)N[C@H]2C(=O)N[C@H]3C(=O)N[C@H](C(=O)N[C@H](C(=O)O)c4cc(O)cc(O)c4-c4cc3ccc4O)[C@H](O)c3ccc(c(Cl)c3)Oc3cc2cc(c3O[C@@H]2O[C@H](CO)[C@@H](O)[C@H](O)[C@H]2O[C@H]2C[C@](C)(N)[C@H](O)[C@H](C)O2)Oc2ccc(cc2Cl)[C@H]1O [VANCOMYCIN]
Staphylococcus aureus [4]
  MBIC: 3.125 µg/mL

## COC(CC1OC(=O)CC(O)C/C=C/C(=O)C(C)C(OC)c2coc(n2)-c2coc(n2)-c2coc(n2)/C=C\CCC1C)C(C)CCC(=O)C(C)C(C/C=C/N(C)C=O)OC (stereo unspecified)
A549 [12]
  IC50: 0.022 µM
MDA-MB-231
  IC50: 0.04 µM
A549 [13]
  IC50: 0.024 µM
SK-HEP1
  IC50: 0.08 µM
[14]
  IC50: 0.107 µM
HCT-116
  IC50: 0.073 µM

## Cc1nnc(-c2cc(-c3ccc(Cl)cc3)n(-c3ccc(NC(=O)c4ccccc4)cc3)n2)o1
[15]
  MIC: 3.13 µg/mL (≈ 6.87 µM)

## COc1ccc(-c2cc(-c3nnc(C)o3)nn2-c2ccc(NC(=O)c3ccc(F)cc3)cc2)cc1
[15]
  MIC: > 50 µg/mL

## CO[C@@H]1[C@H](N(C)c2ncc(-c3c[nH]c4ccccc34)o2)C[C@H]2C[C@]1(C)n1c3ccccc3c3c4c(c5c6ccccc6n2c5c31)C(=O)NC4
[16]
  IC50: 0.5 µM
A549 [17]
  IC50: 0.45 µM

## Nc1ccc(-c2nnc(SCCSc3nnc(-c4c[nH]c5ccccc45)n3N)o2)cc1
Staphylococcus aureus [18]
  MIC: 2 µg/mL (≈ 4.44 µM)
Escherichia coli
  MIC: 2 µg/mL

## COc1cc(-c2nnc(SCC(=O)Nc3ccc(/C(C)=N/O)cc3)o2)cc(OC)c1OC
Rattus norvegicus [19]
  inhibition (INH): 96.67%

## Brc1ccccc1-c1nc(-c2ccccc2)co1
HepG2 [5]
  IC50: 16.9 µM

## Cc1ncc(-c2ccc3ccccc3c2)o1
MCF7 [8]
  IC50: 4.6 µM
A549 [11]
  IC50: 4.6 µM
HeLa
  IC50: 4.6 µM

## CO[C@@H]1[C@H](N(C)c2ncc(-c3ccccc3)o2)C[C@H]2C[C@]1(C)n1c3ccccc3c3c4c(c5c6ccccc6n2c5c31)C(=O)NC4
[16]
  IC50: 0.5 µM
A549 [17]
  IC50: 0.75 µM

## C/C=C(C)/C=C(\C)[C@@H](O)[C@H](C)[C@@H](O)[C@@H]1OC(=O)/C(CCCCCC)=C/c2coc(n2)[C@H](C)[C@@H](O)C[C@H](O)/C=C/C=C\C[C@@H]1O
[20]
  MIC: 64 µg/mL (≈ 104 µM)

## COc1ccc(-c2nnc(SCCSc3nnc(-c4c[nH]c5ccccc45)n3N)o2)cc1
Staphylococcus aureus [18]
  MIC: 2 µg/mL (≈ 4.3 µM)
Escherichia coli
  MIC: 2 µg/mL

## CCC[C@@H]1NC(=O)C2C[C@H](C)CN2C(=O)[C@@H](NC=O)CNC(=O)[C@H](CSSC[C@@H]2NC(=O)c3coc(n3)[C@H](C)NC(=O)C(=O)[C@H](CCC)NC(=O)C3C[C@H](C)CN3C(=O)[C@@H](NC=O)CNC2=O)NC(=O)c2coc(n2)[C@H](C)NC(=O)C1=O (stereo partly specified)
P388
  IC50: 0.83 µM

## c1ccc(Cc2noc(-c3cn(CCN4CCCC4)c4ccccc34)n2)cc1
[21]
  pKb: 7.2

## O=c1cc(Nc2ccc(-c3cc(-c4ccc(Cl)cc4Cl)on3)cc2)c2ccccc2o1
Pseudomonas aeruginosa
  MIC: 12.5 µg/mL (≈ 27.8 µM)
Bacillus cereus
  MIC: 12.5 µg/mL (≈ 27.8 µM)

## Cn1c(-c2nnc(-c3ccc(Cl)cc3)o2)cc(Br)c1Br
Staphylococcus aureus [4]
  MBIC: 0.78 µg/mL

## Cc1nnc(-c2cc(-c3ccc(Cl)cc3)n(-c3ccc(NC(=O)c4ccccc4Cl)cc3)n2)o1
[15]
  MIC: 1.56 µg/mL (≈ 3.18 µM)

## C/C=C(C)\C=C(/C)[C@@H](O)[C@H](C)[C@@H](O)[C@@H]1OC(=O)/C(CCCCCC)=C/c2coc(n2)[C@H](C)[C@@H](O)C[C@H](O)/C=C/C=C\C[C@@H]1O
[20]
  MIC: 64 µg/mL (≈ 104 µM)

## Cc1ncc(-c2cnc3ccccc3c2)o1
MCF7 [8]
  IC50: 4.6 µM
A549 [11]
  IC50: 4.6 µM
HeLa
  IC50: 4.6 µM

## COc1ccc(-c2cc(-c3nnc(C)o3)nn2-c2ccc(NC(=O)c3ccccc3)cc2)cc1
[15]
  MIC: > 50 µg/mL

## O=[N+]([O-])c1ccccc1-c1nc(-c2ccccc2)co1
HepG2 [5]
  IC50: 56.5 µM

## C/C=C(C)/C=C(\C)[C@@H](O)[C@H](C)[C@@H](O)[C@H](O)[C@@H]1C/C=C\C=C\[C@@H](O)C[C@H](O)[C@@H](C)c2nc(cs2)/C=C(\CCCCCC)C(=O)O1
[20]
  MIC: 16 µg/mL (≈ 25.3 µM)

## O=C(NNC(=S)c1ccc(C(F)(F)F)cc1)c1ccc(-c2nnc(-c3ccc4ncccc4c3)o2)cc1
Leishmania major
  IC50: 0.1 µM
